According to patent publication US8148423B2, “Fluorophore compounds” (Versitech Limited, priority 2008, dated 2012):

Columns and labels:
[1] = Absorption spectra of rhodol fluorophores in phosphate buffer; type: physicochemical; settings: for εmax: 50 mM aqueous phosphate buffer at pH about 8.0; for Abs Max: 50 mM aqueous phosphate buffer at pH about 8.0, 25° C.
Description: (§1) The photophysical properties of the rhodol fluorophores in Table 1 were measured according to the procedures disclosed herein and are summarized in Table 1. Stock solutions were prepared by accurately weighting and dissolving about 5-10 mg of the rhodol fluorophores in Table 1 in acetonitrile (CH3CN). Absorbance solutions were prepared by further diluting the stock solution with 50 mM of potassium phosphate buffer at pH 8.0. Absorption spectra were recorded on a CARY 50 Bio UV-Visible spectrophotometer (obtainable from Varian Incorporation, Palo Alto, Calif.) under the control of a PC running the manufacturer supplied software package. Spectra were routinely acquired at 25° C., in 1 cm path length quartz cuvettes with a volume of 3.5 mL. Fluorescence spectra were recorded on a Hitachi F-2500 spectrofluorimeter (obtainable from Hitachi, Japan) under the control of a PC running the manufacturer supplied software package. Slit width was 2.5 nm for both the excitation spectrum and the fluorescence spectrum, and the photomultiplier voltage was […]. All spectra were corrected for emission intensity using the manufacturer-supplied photomultiplier curves. The quantum yields of the fluorophores may be estimated by comparison of the integrated area of the corrected emission spectrum of the sample with that of a reference solution, such as a solution of rhodamine 6 G in water (quantum efficiency 0.76). The concentration of the reference was adjusted to match the absorbance of the test sample.

[2] = Fluorescence spectra and quantum yield of rhodol fluorophores, rhodamine 6G as reference; type: physicochemical; settings: 50 mM aqueous phosphate buffer at pH about 8.0, N.D. = no fluorescence detected; for QY (quantum yield): relative to rhodamine 6G (QY = 0.76 in water)
Description: as §1

Row | SMILES | εmax [1] | Abs Max [1] | Em Max [2] [nm] | QY (quantum yield) [2]
1 | CCN(CC)c1ccc2c(c1)Oc1cc(O)ccc1C21OC(=O)c2ccccc21 (centres unmarked) [A=H, R1=Et, R2=Et] | 47,000 cm^−1M^−1 | 522 nm | 549 | 0.08
2 | O=C1OC2(c3ccc(O)cc3Oc3cc(NCc4ccccc4)ccc32)c2ccccc21 (centres unmarked) [A=H, R1=H, R2=Bn] | 71,000 cm^−1M^−1 | 503 nm | 529 | 0.95
3 | C=CC(=O)Nc1ccc2c(c1)Oc1cc(O)ccc1C21OC(=O)c2ccccc21 (centres unmarked) [A=H, R1=H, R2=COCHCH2] |  | 462/490 | 524 | 0.19
4 | O=C(Nc1ccc2c(c1)Oc1cc(O)ccc1C21OC(=O)c2ccccc21)c1ccccc1 (centres unmarked) [A=H, R1=H, R2=COPh] |  | 462/490 | 525 | 0.16
5 | Nc1ccc2c(c1)Oc1cc(O)ccc1C21OC(=O)c2ccccc21 (centres unmarked) [A=H, R1=H, R2=H] | ~70,000 cm^−1M^−1 | 493 nm | 516 | 0.98
6 | O=C1OC2(c3ccc(O)cc3Oc3cc(Nc4ccccc4)ccc32)c2ccccc21 (centres unmarked) [A=H, R1=H, R2=Ph] | 55,000 cm^−1M^−1 | 513 nm |  | 

Other lines, results leading:

Row | εmax [1] | Abs Max [1] | Em Max [2] [nm] | QY (quantum yield) [2] | SMILES
7 | 60,000 cm^−1M^−1 | 508 nm | 533 | 0.90 | CCCCNc1ccc2c(c1)Oc1cc(O)ccc1C21OC(=O)c2ccccc21 (centres unmarked) [A=H, R1=H, R2=n-Bu]
8 | 61,000 cm^−1M^−1 | 507 nm | 531 | 0.94 | CCCNc1ccc2c(c1)Oc1cc(O)ccc1C21OC(=O)c2ccccc21 (centres unmarked) [A=H, R1=H, R2=n-Pr]
9 | 64,000 cm^−1M^−1 | 518 nm | 544 | 0.20 | CN(C)c1ccc2c(c1)Oc1cc(O)ccc1C21OC(=O)c2ccccc21 (centres unmarked) [A=H, R1=Me, R2=Me]
10 | 63,000 cm^−1M^−1 | 525 nm | 553 | 0.12 | CCCCN(CCCC)c1ccc2c(c1)Oc1cc(O)ccc1C21OC(=O)c2ccccc21 (centres unmarked) [A=H, R1=n-Bu, R2=n-Bu]
11 | 62,500 cm^−1M^−1 | 523 nm | 555 | 0.03 | O=C1OC2(c3ccc(O)cc3Oc3cc(N4CCCCC4)ccc32)c2ccccc21 (centres unmarked) [A=H, R1R2=CH2CH2CH2CH2CH2]
12 |  | 293 nm |  |  | COCOc1ccc2c(c1)Oc1cc(NC(=O)c3ccccc3)ccc1C21OC(=O)c2ccccc21 (centres unmarked) [A=MOM, R1=H, R2=COPh]
13 |  | 494 nm | 532 | 0.35 | CCCNc1ccc2c(c1)Oc1cc(OCOC)ccc1C21OC(=O)c2ccccc21 (centres unmarked) [A=MOM, R1=H, R2=n-Pr]
14 |  | 477 nm | 516 | 0.85 | COc1ccc2c(c1)Oc1cc(N)ccc1C21OC(=O)c2ccccc21 (centres unmarked) [A=Me, R1=H, R2=H]
